From patent US9833497B2, “Human originated EGF domain proteins and use of the same” (CHENGDU SOURCEBIO LIMITED-LIABILITY COMPANY, priority 2013, dated 2017)

Legend:
Format in all cases: cell-based
[1] = tested on: Enterobacter cloacae; assay: MIC against Gram-negative bacteria: Enterobacter cloacae; settings: 5×10^5 CFU/mL
Method in brief: (§1)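 Inocula prepared by growing LB cultures at 37° C to 0.5 McFarland, centrifuging at 4000×g, and resuspending in fresh medium. Final density 5×10^5 CFU/mL per well with two-fold dilutions of purified EGF domain protein; shaking incubation at 37° C.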

[2] = tested on: E. coli BL21; assay: MIC against Gram-negative bacteria: E. coli BL21; settings: E. coli BL21, 5×10^5 CFU/mL
Method in brief: as §1

[3] = tested on: E. coli DH5α; assay: Antibacterial activity: MIC and growth curve against E. coli DH5α in 96-well plate; settings: minimal inhibitory concentration against E. coli DH5α; 96-well plate, 5×10^5 CFU/mL, 37° C., judged after 8 h
Method in brief: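 Log-phase bacteria (OD600 ~0.5) resuspended in LB at 5×10^5 CFU/mL, exposed to recombinant protein at 50, 25, 12.5 μg/mL final in triplicate, 37 °C shaking at 175 rpm. OD600 read every 30 min; MIC is lowest concentration showing no growth.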

[4] = tested on: Pseudomonas aeruginosa; assay: MIC against Gram-negative bacteria: Pseudomonas aeruginosa; settings: 5×10^5 CFU/mL
Method in brief: as §1

[5] = tested on: Proteus mirabilis; assay: MIC against Gram-negative bacteria: Proteus mirabilis; settings: 5×10^5 CFU/mL
Method in brief: as §1

[6] = tested on: Aeromonas hydrophila; assay: MIC against Gram-negative bacteria: Aeromonas hydrophila; settings: 5×10^5 CFU/mL
Method in brief: as §1

[7] = tested on: Klebsiella pneumonia; assay: MIC against Gram-negative bacteria: Klebsiella pneumonia; settings: 5×10^5 CFU/mL
Method in brief: as §1

[8] = tested on: Citrobacter diversus; assay: MIC against Gram-negative bacteria: Citrobacter diversus; settings: 5×10^5 CFU/mL
Method in brief: as §1

[9] = tested on: Proteus vulgaris; assay: MIC against Gram-negative bacteria: Proteus vulgaris; settings: 5×10^5 CFU/mL
Method in brief: as §1

[10] = tested on: Serratia marcescens; assay: MIC against Gram-negative bacteria: Serratia marcescens; settings: 5×10^5 CFU/mL
Method in brief: as §1

[11] = tested on: Moraxella catarrhalis; assay: MIC against Gram-negative bacteria: Moraxella catarrhalis; settings: 5×10^5 CFU/mL
Method in brief: as §1

[12] = E. cloacae, 10 h cultivation at 37° C.
[13] = P. aeruginosa, 10 h cultivation at 37° C.
[14] = P. mirabilis, 10 h cultivation at 37° C.
[15] = A. hydrophila, 10 h cultivation at 37° C.
[16] = K. pneumonia, 10 h cultivation at 37° C.
[17] = C. diversus, 10 h cultivation at 37° C.
[18] = P. vulgaris, 10 h cultivation at 37° C.
[19] = S. marcescens, 10 h cultivation at 37° C.
[20] = M. catarrhalis, 10 h cultivation at 37° C.
[21] = Enterobacter cloacae, 96-well plate, 37° C., 10 h
[22] = Pseudomonas aeruginosa, 96-well plate, 37° C., 10 h
[23] = Proteus mirabilis, 96-well plate, 37° C., 10 h
[24] = Aeromonas hydrophila, 96-well plate, 37° C., 10 h
[25] = Klebsiella pneumonia, 96-well plate, 37° C., 10 h
[26] = Citrobacter diversus, 96-well plate, 37° C., 10 h
[27] = Proteus vulgaris, 96-well plate, 37° C., 10 h
[28] = Serratia marcescens, 96-well plate, 37° C., 10 h
[29] = Moraxella catarrhalis, 96-well plate, 37° C., 10 h

Substance	MIC (μg/mL) E. cloacae [1, 12] [µg/mL]	MIC (μg/mL) E. coli BL21 ([2]; 10 h cultivation at 37° C.) [µg/mL]	MIC [3] [µg/mL]	MIC (μg/mL) P. aeruginosa [4, 13] [µg/mL]	MIC (μg/mL) P. mirabilis [5, 14] [µg/mL]	MIC (μg/mL) A. hydrophila [6, 15] [µg/mL]	MIC (μg/mL) K. pneumonia [7, 16] [µg/mL]	MIC (μg/mL) C. diversus [8, 17] [µg/mL]	MIC (μg/mL) P. vulgaris [9, 18] [µg/mL]	MIC (μg/mL) S. marcescens [10, 19] [µg/mL]	MIC (μg/mL) M. catarrhalis [11, 20] [µg/mL]	further results
PRT212 (DIDECESGAHQCSEAQTCVNFHGGYRCV; listed as Homo sapiens)	12.5	50	12.5	12.5	12.5	25	50	12.5	12.5	12.5	25	–
PRT784 (FGKNCAGICTCTNNGTCNPIDRSCQCYPGWIGSDCS; listed as Homo sapiens)	12.5	25	50	12.5	12.5	50	50	12.5	50	12.5	50	–
PRT1297 (NACLSSPCKNNGTCTQDPVELYRCACPYSYKGKDCT; listed as Homo sapiens)	–	–	12.5	–	–	–	–	–	–	–	–	MIC against E. cloacae [1, 21]: 50 µg/mL; MIC against E. coli BL21 ([2]; 96-well plate, 37° C., 10 h): 50 µg/mL; MIC against P. aeruginosa [4, 22]: 12.5 µg/mL; MIC against P. mirabilis [5, 23]: 25 µg/mL; MIC against A. hydrophila [6, 24]: 12.5 µg/mL; MIC against K. pneumonia [7, 25]: 25 µg/mL; MIC against C. diversus [8, 26]: 25 µg/mL; MIC against P. vulgaris [9, 27]: 12.5 µg/mL; MIC against S. marcescens [10, 28]: 50 µg/mL; MIC against M. catarrhalis [11, 29]: 50 µg/mL
PRT872 (CKCNLHANLCSMREGSLQCECEHNTTGPDCGKCKKNFRTRSWRAGSYLPLPHGSPNACAT; listed as Homo sapiens)	25	50	25	25	12.5	50	12.5	12.5	50	25	50	–
PRT137 (NPCQGSATCVNTPGERSFLCKCPPGYSGTICE; listed as Homo sapiens)	–	–	25	–	–	–	–	–	–	–	–	MIC (μg/mL) E. cloacae [1, 21]: 25 µg/mL; MIC (μg/mL) E. coli BL21 ([2]; 96-well plate, 37° C., 10 h): 12.5 µg/mL; MIC (μg/mL) P. aeruginosa [4, 22]: 25 µg/mL; MIC (μg/mL) P. mirabilis [5, 23]: 25 µg/mL; MIC (μg/mL) A. hydrophila [6, 24]: 12.5 µg/mL; MIC (μg/mL) K. pneumonia [7, 25]: 12.5 µg/mL; MIC (μg/mL) C. diversus [8, 26]: 25 µg/mL; MIC (μg/mL) P. vulgaris [9, 27]: 12.5 µg/mL; MIC (μg/mL) S. marcescens [10, 28]: 50 µg/mL; MIC (μg/mL) M. catarrhalis [11, 29]: 12.5 µg/mL
PRT1307 (HECPGGAETPCNGHGTCLDGMDRNGTCVCQENFRGSACQ; listed as Homo sapiens)	–	–	12.5	–	–	–	–	–	–	–	–	MIC against E. cloacae [1, 21]: 100 µg/mL; MIC against E. coli BL21 ([2]; 96-well plate, 37° C., 10 h): 50 µg/mL; MIC against P. aeruginosa [4, 22]: 12.5 µg/mL; MIC against P. mirabilis [5, 23]: 25 µg/mL; MIC against A. hydrophila [6, 24]: 50 µg/mL; MIC against K. pneumonia [7, 25]: 50 µg/mL; MIC against C. diversus [8, 26]: 12.5 µg/mL; MIC against P. vulgaris [9, 27]: 12.5 µg/mL; MIC against S. marcescens [10, 28]: 25 µg/mL; MIC against M. catarrhalis [11, 29]: 50 µg/mL
PRT889 (DVNECVSNPCQNDATCLDQIGEFQCICMPGYEGVHCE; listed as Homo sapiens)	12.5	12.5	25	25	25	12.5	12.5	12.5	12.5	25	12.5	–
